According to patent US8969406B2, “Use of compound for inhibiting glutathione s-transferase omega 1 activity and method for synthesizing the same” (China Medical University, priority 2013, dated 2015):
Read-outs that look alike come from different tables or passages of the source.

Assays:
[1] = test system: prostate cancer cell line (DU145); assay: In vitro cytotoxicity assay, cancer cell growth inhibition, DU145 cell
Description: (§1) For evaluating the in vitro growth inhibitory concentrations ([…], μM) of the compound represented by Formula 1 of the present disclosure, human oralepithelial carcinoma cell line (KB), multidrug-resistant nasopharyngeal carcinoma cell line (KB-Vin), human lung adenocarcinoma cell line (A549), and prostate cancer cell line (DU145) were used in the following experiment. The GI50 values of Paclitaxel, an anticancer chemotherapy drug, were used as control.

[2] = test system: human oralepithelial carcinoma cell line (KB); assay: In vitro cytotoxicity assay, cancer cell growth inhibition, KB cell
Description: as §1

[3] = test system: human lung adenocarcinoma cell line (A549); assay: In vitro cytotoxicity assay, cancer cell growth inhibition, A549 cell
Description: as §1

[4] = test system: multidrug-resistant nasopharyngeal carcinoma cell line (KB-Vin); assay: In vitro cytotoxicity assay, cancer cell growth inhibition, KB-Vin cell
Description: as §1

GSTO1 = biological target: T1, GSTO1 (Homo sapiens, UniProt P78417); assay: Enzyme activity assay of GST omega 1 (GSTO1) with 4NPG substrate; assay type: biochemical; details: 2 nM GSTO1, 0.5 mM 4NPG, 30 min 25° C. pre-reaction, O.D.305
T1 sequence (P78417 1-241): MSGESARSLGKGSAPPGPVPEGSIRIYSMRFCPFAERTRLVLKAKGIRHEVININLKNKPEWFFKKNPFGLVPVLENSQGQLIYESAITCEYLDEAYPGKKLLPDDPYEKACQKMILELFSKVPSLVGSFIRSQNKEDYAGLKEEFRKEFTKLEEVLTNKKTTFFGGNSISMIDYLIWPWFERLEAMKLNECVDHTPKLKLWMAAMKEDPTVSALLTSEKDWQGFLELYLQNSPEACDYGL
Description: First, 100 μl mixture having 2 nM GSTO1, 100 mM Tris (pH 8.0), 1.5 mM EDTA, and 10 mM 2-mercaptoethanol were added into each well of an UV-penetrable 96-well culture plate. Besides, 100 μl buffer having 100 mM Tris (pH 8.0), 1.5 mM EDTA, and 10 mM 2-mercaptoethanol were used as blank control.
Then, 4NPG were added to each of the aforementioned mixture to a final concentration of 0.5 mM.

[5] = Homo sapiens, DU-145, read-out: In vitro cytotoxicity assay: GI50 (μM) DU145 cell
[6] = Homo sapiens, A549, read-out: In vitro cytotoxicity assay: GI50 (μM) A549 cell
[7] = read-out: In vitro cytotoxicity assay: GI50 (μM) DU145 cell, DU145 cell
[8] = read-out: In vitro cytotoxicity assay: GI50 (μM) A549 cell, A549 cell

SMILES	GI50 [1]	In vitro cytotoxicity assay: GI50 (μM) KB cell [2]	GI50 [3]	In vitro cytotoxicity assay: GI50 (μM) KB-Vin cell [4]	In vitro cytotoxicity assay: GI50 (μM) KB cell ([2]; KB cell)	In vitro cytotoxicity assay: GI50 (μM) KB-Vin cell ([4]; KB-Vin cell)	further results
CCC(C)CCCC(C)CCOc1ccc2c(ccc3oc(C4(O)C=CC(=O)C=C4)cc(=O)c32)c1 (centres unmarked) [side chain No. 13]	1.26 µM	1.115 µM	4.27 µM	1.883 µM	–	–	–
CC(C)CCOc1ccc2c(ccc3oc(C4(O)C=CC(=O)C=C4)cc(=O)c32)c1 [side chain No. 11]	–	–	–	–	0.2 µM	0.269 µM	GI50 [1, 5]: 0.231 µM; GI50 [3, 6]: 0.382 µM
COCOc1ccc2c(ccc3oc(C4(O)C=CC(=O)C=C4)cc(=O)c32)c1 [side chain No. 10]	–	–	–	–	0.786 µM	0.766 µM	GI50 [1, 7]: 0.865 µM; GI50 [3, 8]: 0.819 µM
COc1ccc2c(ccc3oc(C4(O)C=CC(=O)C=C4)cc(=O)c32)c1 [compound B]	–	–	–	–	–	–	inhibitory effect against GSTO1 enzyme activity (competition with 4NPG, FIG. 1) (GSTO1): slight
O=C1C=CC(O)(c2cc(=O)c3c(ccc4cc(OC(=O)N5CCOCC5)ccc43)o2)C=C1 [side chain No. 6]	0.617 µM	0.607 µM	0.603 µM	0.64 µM	–	–	–
CN(C)CCOc1ccc2c(ccc3oc(C4(O)C=CC(=O)C=C4)cc(=O)c32)c1 [side chain No. 14]	–	–	–	–	0.683 µM	0.841 µM	GI50 [1, 7]: 0.808 µM; GI50 [3, 8]: 0.754 µM
COc1ccc2c(ccc3oc(C4(O)C=CC(=O)C=C4)cc(=O)c32)c1 [side chain No. 8]	–	–	–	–	0.871 µM	0.692 µM	GI50 [1, 7]: 0.707 µM; GI50 [3, 8]: 0.811 µM
O=C1C=CC(O)(c2cc(=O)c3c(ccc4cc(O)ccc43)o2)C=C1 [side chain No. 19]	–	–	–	–	0.944 µM	0.738 µM	GI50 [1, 7]: 0.709 µM; GI50 [3, 8]: 0.806 µM
O=C1C=CC(O)(c2cc(=O)c3c(ccc4cc(OCCN5CCCC5)ccc43)o2)C=C1 [side chain No. 18]	0.693 µM	0.552 µM	0.628 µM	1.108 µM	–	–	–
CC(=O)O[C@H]1C(=O)[C@@]2(C)[C@H]([C@H](OC(=O)c3ccccc3)[C@]3(O)C[C@H](OC(=O)[C@H](O)[C@@H](NC(=O)c4ccccc4)c4ccccc4)C(C)=C1C3(C)C)[C@]1(OC(C)=O)CO[C@@H]1C[C@@H]2O [Paclitaxel, reference compound]	–	–	–	–	–	–	GI50 ([1]; Homo sapiens, DU-145, read-out: GI50 DU145 cell (control)): 0.003 µM; GI50 KB cell (control) ([2]; KB cell): 4.64 nM; GI50 ([3]; Homo sapiens, A549, read-out: GI50 A549 cell (control)): 0.00356 µM; GI50 KB-Vin cell (control) ([4]; KB-Vin cell): >1000 nM
O=C1C=CC(O)(c2cc(=O)c3c(ccc4ccccc43)o2)C=C1 [Compound main structure]	–	–	–	–	0.865 µM	0.674 µM	GI50 [1, 5]: 0.799 µM; GI50 [3, 6]: 0.763 µM
O=C1C=CC(O)(c2cc(=O)c3c(ccc4cc(OC(=O)N5CCCCC5)ccc43)o2)C=C1 [side chain No. 7]	0.522 µM	0.615 µM	0.536 µM	0.619 µM	–	–	–
O=C1C=CC(O)(c2cc(=O)c3c(ccc4cc(OCCN5CCCCC5)ccc43)o2)C=C1 [side chain No. 17]	0.541 µM	0.499 µM	0.483 µM	0.675 µM	–	–	–
O=C1C=CC(O)(c2cc(=O)c3c(O)cc(O)cc3o2)C=C1 [compound A]	–	–	–	–	–	–	inhibitory effect against GSTO1 enzyme activity (competition with 4NPG, FIG. 1) (GSTO1): slight
CC(C)N(CCOc1ccc2c(ccc3oc(C4(O)C=CC(=O)C=C4)cc(=O)c32)c1)C(C)C [side chain No. 16]	0.62 µM	0.55 µM	0.584 µM	0.682 µM	–	–	–
CC(C)CCCC(C)CCOc1ccc2c(ccc3oc(C4(O)C=CC(=O)C=C4)cc(=O)c32)c1 (centres unmarked) [side chain No. 12]	–	–	–	–	0.067 µM	0.335 µM	GI50 [1, 5]: 0.065 µM; GI50 [3, 6]: 0.233 µM
CCN(CC)CCOc1ccc2c(ccc3oc(C4(O)C=CC(=O)C=C4)cc(=O)c32)c1 [side chain No. 15]	0.685 µM	0.644 µM	0.551 µM	1.325 µM	–	–	–
